According to article PMC12123458, “Unraveling Small Molecule-Mediated Sirtuin 3 Activation at a Distinct Binding Site for Cardioprotective Therapies” (ACS Central Science, 2025):

How the values were obtained:
SIRT2 = molecular target: T1, SIRT2 (Homo sapiens, UniProt Q8IXJ6); assay: Coupled enzymatic assay, acetylated α-tubulin-K25 substrate; format: biochemical; conditions: 100 μM
T1 sequence (Q8IXJ6 1-389): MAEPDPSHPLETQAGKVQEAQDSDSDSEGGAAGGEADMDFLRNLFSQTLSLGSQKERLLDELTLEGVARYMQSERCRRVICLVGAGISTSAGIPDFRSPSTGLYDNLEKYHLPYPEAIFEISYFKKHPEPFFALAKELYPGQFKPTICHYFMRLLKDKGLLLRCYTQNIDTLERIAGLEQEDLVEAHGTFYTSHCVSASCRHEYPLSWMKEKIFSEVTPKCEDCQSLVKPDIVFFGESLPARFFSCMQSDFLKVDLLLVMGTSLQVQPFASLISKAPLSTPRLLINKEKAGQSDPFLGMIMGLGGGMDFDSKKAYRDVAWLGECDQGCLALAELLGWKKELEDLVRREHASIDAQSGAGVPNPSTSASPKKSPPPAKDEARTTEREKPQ
From the text: (§1) Additionally, we used surface plasmon resonance (SPR) to measure the binding of SKLB-11A to immobilized SIRT3. […] We next evaluated the selectivity of SKLB-11A for different SIRT family members. […] We next examined the functional specificity of SKLB-11A using coupled enzymatic assays with isoform-specific, physiologically relevant substrates: acetylated p53-K381 for SIRT1, acetylated α-tubulin-K25 for SIRT2, acetylated MnSOD-K122 for SIRT3, and succinylated CPS1-K537 for SIRT5 (Supplementary Table S3). […] Using Schrödinger molecular docking simulations, we assessed the binding interactions of SKLB-11A with SIRT isoforms.

[1] = tested on: LC3, p62, PINK1, Parkin in H9c2 cells; assay: Autophagy/mitophagy markers in H9c2 cells (Western blot, immunofluorescence); format: cell-based; conditions: 24 h
Method: Proteomic analysis was conducted on H9c2 cells and murine cardiac tissues. Protein lysates were resolved via SDS-PAGE and transferred onto PVDF membranes. […] After washing, membranes were probed with secondary antibodies for 1 h at room temperature. Detection was facilitated by an ECL kit, with densitometry performed using ImageJ software to quantify protein expression, normalized against controls. The antibodies employed included: anti-SIRT3 (2627, Cell Signaling Technology), anti-acetylated lysine (9441, CST), anti-Ac.K68-MnSOD2 (ab137037, Abcam), anti-Ac.K122-MnSOD2 (ab214675, Abcam), anti-MnSOD2 (13141, CST), anti-LC3B (3868, CST), anti-p62 (8025, CST), anti-PINK1 (6946, CST), anti-Parkin (4211, CST), and anti-β-actin (ab8226, Abcam).

SIRT1 = molecular target: T2, SIRT1 (Homo sapiens, UniProt Q96EB6); assay: Coupled enzymatic assay, acetylated p53-K381 substrate; format: biochemical; conditions: 100 μM
T2 sequence (Q96EB6 1-747): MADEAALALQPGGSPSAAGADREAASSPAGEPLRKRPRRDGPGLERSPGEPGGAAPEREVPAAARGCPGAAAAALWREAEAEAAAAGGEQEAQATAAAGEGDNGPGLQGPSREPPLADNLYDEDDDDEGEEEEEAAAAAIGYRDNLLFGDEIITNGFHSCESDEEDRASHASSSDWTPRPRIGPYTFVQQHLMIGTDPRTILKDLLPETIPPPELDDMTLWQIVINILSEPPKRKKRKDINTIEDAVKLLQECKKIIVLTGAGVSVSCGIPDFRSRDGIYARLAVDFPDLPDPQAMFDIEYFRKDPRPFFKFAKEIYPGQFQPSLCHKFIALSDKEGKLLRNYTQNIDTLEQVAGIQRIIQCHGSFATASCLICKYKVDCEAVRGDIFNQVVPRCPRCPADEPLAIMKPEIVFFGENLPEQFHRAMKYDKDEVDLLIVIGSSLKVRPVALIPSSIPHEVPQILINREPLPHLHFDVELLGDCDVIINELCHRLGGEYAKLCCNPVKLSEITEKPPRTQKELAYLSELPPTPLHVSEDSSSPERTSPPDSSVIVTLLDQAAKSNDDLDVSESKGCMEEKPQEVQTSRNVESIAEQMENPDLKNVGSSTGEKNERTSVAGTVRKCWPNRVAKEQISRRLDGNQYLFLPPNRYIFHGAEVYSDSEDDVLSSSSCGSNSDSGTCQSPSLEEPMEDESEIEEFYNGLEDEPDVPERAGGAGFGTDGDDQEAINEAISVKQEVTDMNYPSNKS
From the text: as §1

SIRT5 = molecular target: T3, SIRT5 (Homo sapiens, UniProt Q9NXA8); assay: Coupled enzymatic assay, succinylated CPS1-K537 substrate; format: biochemical; conditions: 100 μM
T3 sequence (Q9NXA8 37-310): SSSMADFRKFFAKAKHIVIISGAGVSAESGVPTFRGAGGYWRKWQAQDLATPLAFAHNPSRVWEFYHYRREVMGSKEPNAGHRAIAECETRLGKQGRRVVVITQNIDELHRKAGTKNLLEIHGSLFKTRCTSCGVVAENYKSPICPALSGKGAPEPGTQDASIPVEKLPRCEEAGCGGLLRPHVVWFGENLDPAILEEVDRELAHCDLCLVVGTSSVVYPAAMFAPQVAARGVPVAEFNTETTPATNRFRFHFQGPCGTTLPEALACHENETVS
From the text: as §1

H9c2 cells = assay: Dox-induced cardiotoxicity model in H9c2 cells, MTT cell viability; format: cell-based
Method: H9c2 cardiomyocytes were cultured in high-glucose DMEM supplemented with 10% FBS and 1% penicillin/streptomycin under a 5% CO2 atmosphere at 37 °C. Cells were seeded at 5 × 10^4 cells/mL in 96-well plates and treated with 1 μM Dox for 24 h. After Dox treatment, cell viability was quantified via MTT assay; 3-(4,5-dimethythiazol-2-yl)-2,5-diphenyltetrazolium bromide (MTT, 5 mg/mL) was applied for 4 h, followed by DMSO dissolution of formazan crystals. Additionally, cells were pretreated with 10 μM SKLB-11A for 24 h prior to 1 μM Dox exposure, and viability was similarly assessed using MTT.

## COC(=O)c1c(N)n(Cc2ccc(F)cc2)c2nc3ccccc3nc12 [SKLB-11A, Methyl 2-amino-1-(4-fluorobenzyl)-1H-pyrrolo[2,3-b]quinoxaline-3-carboxylate]
SIRT2
  effect on basal SIRT2 deacetylation activity: no statistically significant effects
[1]
  LC3-II and p62 (autophagic flux): increased LC3-II expression and reduced p62 levels
  expression of PINK1 and Parkin: increased the expression of PINK1 and Parkin
SIRT1
  effect on basal SIRT1 deacetylation activity: no statistically significant effects
SIRT5
  effect on basal SIRT5 desuccinylation activity: no statistically significant effects
H9c2 cells; Dox-treated H9c2, MTT
  protective effects on H9c2 cells compared to the positive control compounds: slightly better protective effects
H9c2 cells; Rattus norvegicus, H9c2, 10 µM pretreatment 24 h, then 1 µM Dox 24 h, MTT, Model (Dox) = Dox alone, read-out: Cardiomyocyte survival rate at 10 uM (%)
  viability at 10 µM: 78.88 ± 0.65%
H9c2 cells; SIRT3 knockdown by shRNA, cell viability
  cardioprotective effects in H9c2 cells with reduced SIRT3 expression: significantly diminished
